Assay results published in the OPERA property sets (Mansouri et al. 2018).
Values after ≈ are worked out from the molar mass of the structure shown.

Row | SMILES | logP | solubility (25 °C) | also measured
1 | Oc1cc(Cl)ccc1Oc1ccc(Cl)cc1Cl | 4.76 | – | –
2 | BrC(Br)Br | 2.4 | – | –
3 | CCCCOCCOCCOC(C)=O | – | 220000 µM (≈ 44900 µg/mL) | –
4 | CCCCCCCCC#N | – | 503 µM (≈ 70 µg/mL) | –
5 | O=C1c2ccccc2-c2cccc3cccc1c23 | 4.81 | – | –
6 | CCCCNCCCC | – | 36400 µM (≈ 4700 µg/mL) | –
7 | Nc1ccc(Cl)cc1Cl | – | 3830 µM (≈ 620 µg/mL) | –
8 | CN(C)Cc1ccccc1 | – | 88800 µM (≈ 12000 µg/mL) | –
9 | CC(C)(C)c1cc(C(C)(C)C)c(O)c(C(C)(C)C)c1 | 6.06 | 133 µM (≈ 35 µg/mL) | –
10 | CC(=O)Nc1ccccc1O | – | 5820 µM (≈ 880 µg/mL) | –
11 | S=C(NC1CCCCC1)NC1CCCCC1 | 3.69 | – | –
12 | C=CC(=C)C | 2.42 | – | –
13 | Oc1ccc(Cc2ccccc2)cc1 | 3.47 | 397 µM (≈ 73.2 µg/mL) | –
14 | CCCC=C(C=O)CC | – | 4640 µM (≈ 586 µg/mL) | –
15 | CC(C)COc1ccc2ccccc2c1 | – | – | solubility: 6.14 µM (≈ 1.23 µg/mL)
16 | COc1ccc(N)c([N+](=O)[O-])c1 | 1.94 | 714 µM (≈ 120 µg/mL) | –
17 | C=CCc1ccc(OC)c(OC)c1 | – | 2810 µM (≈ 500 µg/mL) | –
18 | O=C(O)c1ccccc1-c1ccccc1C(=O)O | – | 5200 µM (≈ 1260 µg/mL) | –
19 | Oc1cccc(Br)c1 | – | 133000 µM (≈ 23000 µg/mL) | –
20 | C=CC(=C)CCC=C(C)C | 4.17 | 41.1 µM (≈ 5.6 µg/mL) | –
21 | COc1cccc([N+](=O)[O-])c1 | – | 3270 µM (≈ 500 µg/mL) | –
22 | CC1CC(C)(C)CC(OOC(C)(C)C)(OOC(C)(C)C)C1 (centres undefined) | 6.53 | – | solubility: 1.98 µM (≈ 0.6 µg/mL)
23 | O=P(OC(CCl)CCl)(OC(CCl)CCl)OC(CCl)CCl | 3.65 | – | –
24 | CCCCCC1C(=O)CCC1CC(=O)OC (centres undefined) | – | – | solubility: 1240 µM (≈ 280 µg/mL)
25 | Oc1cc(Cl)ccc1Cl | – | 12300 µM (≈ 2000 µg/mL) | –
26 | CC(C)C(O)C(C)(C)CO (centres undefined) | 1.24 | – | –

Row | SMILES | logP | solubility (25 °C) | also measured
27 | COC(C)CCOC(C)=O (centres undefined) | – | – | solubility (20 °C): 31500 µM (≈ 4600 µg/mL)
28 | Cc1ccc(C)c(Cc2ccccc2)c1 | 5.65 | – | –
29 | CC(C)(OOC(C)(C)c1ccccc1)c1ccccc1 | 5.5 | 1.7 µM (≈ 0.46 µg/mL) | –
30 | Oc1c(Cl)cccc1Cl | – | 11700 µM (≈ 1900 µg/mL) | –
31 | O=C(O)C1C(C(=O)O)C2(Cl)C(Cl)=C(Cl)C1(Cl)C2(Cl)Cl (centres undefined) | – | 9000 µM (≈ 3500 µg/mL) | –
32 | Oc1c(Cl)cc(Cl)c(Cl)c1Cl | – | 99.2 µM (≈ 23 µg/mL) | –
33 | ClC1C(Br)C(Br)C(Br)C(Br)C1Br (centres undefined) | 4.72 | – | –
34 | Nc1cccc2c(N)cccc12 | – | 2400 µM (≈ 380 µg/mL) | –
35 | S=C(SSSSC(=S)N1CCCCC1)N1CCCCC1 | 2.8 | – | –
36 | Cc1ccc(O)cc1[N+](=O)[O-] | 2.18 | – | –
37 | CCCCOCCOP(=O)(OCCOCCCC)OCCOCCCC | 3.75 | – | –
38 | CC(C)CCOCCC(C)C | 4.25 | – | –
39 | C=CC1CC=CCC1 (centres undefined) | 3.93 | – | –
40 | CNC(=O)Oc1ccccc1C(C)C | – | 2070 µM (≈ 400 µg/mL) | –
41 | O=P(OCCCl)(OCCCl)OCCCl | 1.44 | – | –
42 | O=C(O)c1ccc2ccccc2c1 | – | 273 µM (≈ 47 µg/mL) | –
43 | N#Cc1ccccc1C#N | – | 3080 µM (≈ 395 µg/mL) | –
44 | CCc1cccc(CC)c1 | – | 179 µM (≈ 24 µg/mL) | –
45 | Nc1c(Cl)cc(Cl)cc1Cl | – | 204 µM (≈ 40 µg/mL) | –
46 | O=[N+]([O-])c1ccc(Cl)cc1C(F)(F)F | 3.2 | 443 µM (≈ 100 µg/mL) | –
47 | COC(=O)c1cccc(C(=O)OC)c1 | – | – | solubility: 1490 µM (≈ 290 µg/mL)
48 | N#CSCSc1nc2ccccc2s1 | 3.3 | – | –
49 | ClCC(Cl)(Cl)CCl | 2.72 | 2640 µM (≈ 480 µg/mL) | –
50 | Cc1cc(=O)nc(C(C)C)[nH]1 | 0.55 | – | –
51 | CC(C)(C)C(=O)O | 1.48 | – | –
52 | Oc1c(Cl)cc(Cl)c2ccccc12 | 4.23 | – | –

Row | SMILES | logP | solubility (25 °C) | also measured
53 | C=CCOP(=O)(OCC=C)OCC=C | 1.76 | – | –
54 | BrCC(CBr)(CBr)CBr | 3.99 | – | –
55 | CCCCCC(=O)CCCCC | – | 294 µM (≈ 50 µg/mL) | –
56 | CC(C)(O)CCCC1=CCC(C=O)CC1 (centres undefined) | – | – | solubility: 29000 µM (≈ 6100 µg/mL)
57 | COc1c(N)cccc1[N+](=O)[O-] | 1.78 | – | –
58 | ClCC(Br)CBr (centres undefined) | 2.96 | – | –
59 | N#CCCNCCC#N | -1.34 | – | –
60 | O=C1c2ccccc2C(=O)c2c1ccc1ccccc21 | 4.4 | – | –
61 | O=C1CCCCC1C1=CCCCC1 (centres undefined) | 3.17 | – | –
62 | N#CCc1ccccc1 | – | 854 µM (≈ 100 µg/mL) | –
63 | C=Cc1cccc(CC)c1 | 4.11 | – | –
64 | CC(=O)CC(=O)Nc1ccc(-c2ccc(NC(=O)CC(C)=O)c(C)c2)cc1C | 1.75 | – | –
65 | Cc1ccc(C(C)(C)C)cc1 | 5.17 | – | –
66 | Nc1ccc(Cc2ccc(N)c(Cl)c2)cc1Cl | 3.91 | – | –
67 | CCCCC(CC)CN1C(=O)C2C(C1=O)C1(C(C)C)C=CC2(C)CC1 (centres undefined) | 5.96 | – | –
68 | OCC(CO)(CBr)CBr | – | 145000 µM (≈ 38000 µg/mL) | –
69 | C=Cc1ccc(CC)cc1 | 4.19 | – | –
70 | OCc1ccc(Cl)c(Cl)c1 | 2.74 | 9040 µM (≈ 1600 µg/mL) | –
71 | O=C1CCCCCCCCCCCN1 | 2.92 | 1470 µM (≈ 290 µg/mL) | –
72 | Nc1cccc2cccc(N)c12 | – | 5370 µM (≈ 850 µg/mL) | –
73 | OCC(O)c1ccccc1Cl (centres undefined) | 1.17 | – | –
74 | CC=C1CC2C=CC1C2 (centres undefined) | 3.82 | 74 µM (≈ 8.9 µg/mL) | –
75 | C=C(C)CC(C)(C)C | 4.55 | – | –
76 | CC(C)(C)c1ccc(O)c(C(C)(C)C)c1 | 5.19 | 170 µM (≈ 35 µg/mL) | –
77 | CCCCOC(=O)CC(CC(=O)OCCCC)(OC(C)=O)C(=O)OCCCC | – | – | solubility: 12.4 µM (≈ 5 µg/mL)
78 | CC(C)=CCC/C(C)=C/CO | – | 1490 µM (≈ 230 µg/mL) | –

Row | SMILES | logP | solubility (25 °C) | also measured
79 | CC(=O)N(C)c1ccccc1 | – | 112000 µM (≈ 16700 µg/mL) | –
80 | COc1ccc(O)cc1 | – | 322000 µM (≈ 40000 µg/mL) | –
81 | CCc1ccccc1[N+](=O)[O-] | 2.58 | 1590 µM (≈ 240 µg/mL) | –
82 | C=CC(OC(C)=O)OC(C)=O | 0.78 | 56900 µM (≈ 9000 µg/mL) | –
83 | c1ccc(Nc2cccc3ccccc23)cc1 | – | 274 µM (≈ 60 µg/mL) | –
84 | CCOC(=O)C(O)(c1ccc(Cl)cc1)c1ccc(Cl)cc1 | 4.74 | – | –
85 | Cc1cc(C)c(O)c(C)c1 | – | 8810 µM (≈ 1200 µg/mL) | –
86 | CC(C)=CC=C(C)C | 3.5 | 290 µM (≈ 32 µg/mL) | –
87 | O=C(OOC(=O)c1ccccc1)c1ccccc1 | – | 37.6 µM (≈ 9.1 µg/mL) | –
88 | O=[N+]([O-])c1c(Cl)cc(Cl)cc1Cl | – | 27.6 µM (≈ 6.25 µg/mL) | –
89 | Cc1ccc([N+](=O)[O-])cc1O | 2.47 | 6530 µM (≈ 1000 µg/mL) | –
90 | CCCCCCCCN(CCCCCCCC)CCCCCCCC | – | 0.141 µM (≈ 0.05 µg/mL) | –
91 | CCC(C)=NO | 0.63 | – | –
92 | Cc1ccc(Cl)c(O)c1 | 2.9 | – | –
93 | ClCC(Cl)CCl | 2.27 | – | –
94 | CC(CCl)OP(=O)(OC(C)CCl)OC(C)CCl (centres undefined) | 2.59 | 3660 µM (≈ 1200 µg/mL) | –
95 | C=C(C)C(=O)OCCO | – | 768000 µM (≈ 100000 µg/mL) | –
96 | Cc1ccc(O)c([N+](=O)[O-])c1 | – | 4130 µM (≈ 633 µg/mL) | –
97 | Cc1cc(Cc2cc(C)cc(C(C)(C)C)c2O)c(O)c(C(C)(C)C)c1 | 6.25 | 0.0587 µM (≈ 0.02 µg/mL) | –
98 | C=C(C)CCl | – | 15500 µM (≈ 1400 µg/mL) | –
99 | ClCCOC(c1ccccc1)c1ccccc1 | 4.38 | – | –
100 | CNc1cccc(C)c1 | 2.19 | 8910 µM (≈ 1080 µg/mL) | –
101 | COc1cccc2ccccc12 | 3.45 | 63.2 µM (≈ 10 µg/mL) | –
102 | C=C(C)C(=O)OCC(CC)(COC(=O)C(=C)C)COC(=O)C(=C)C | 4.39 | – | –
103 | Cc1ccsc1 | – | 4070 µM (≈ 400 µg/mL) | –
104 | CCC(C)c1cccc(C(C)CC)c1O (centres undefined) | – | 8.72 µM (≈ 1.8 µg/mL) | –

Row | SMILES | logP | solubility (25 °C) | also measured
105 | Nc1ccc2c(c1)C(=O)c1ccccc1C2=O | 3.31 | – | –
106 | ClC(Cl)C(Cl)C(Cl)Cl | 3.23 | 1900 µM (≈ 410 µg/mL) | –
107 | C=C1C2CCC(C2)C1(C)C (centres undefined) | – | 33.8 µM (≈ 4.6 µg/mL) | –
108 | ClC(c1ccccc1)(c1ccccc1)c1ccccc1 | 5.25 | – | –
109 | OCc1c(Cl)cccc1Cl | – | 7910 µM (≈ 1400 µg/mL) | –
110 | OC(c1ccccc1)c1ccc(Cl)cc1 (centres undefined) | 3.61 | 325 µM (≈ 71 µg/mL) | –
111 | COc1ccccc1OCC(O)COC(N)=O (centres undefined) | 0.61 | – | –
112 | c1ccc2sc(SSc3nc4ccccc4s3)nc2c1 | – | 30.1 µM (≈ 10 µg/mL) | –
113 | C=Cc1ccccn1 | 1.54 | – | –
114 | COC(=O)c1ccccc1C(=O)c1ccccc1 | 2.7 | 333 µM (≈ 80 µg/mL) | –
115 | N=C(Nc1ccccc1)Nc1ccccc1 | – | 4730 µM (≈ 1000 µg/mL) | –
116 | CC(C)[N+](=O)[O-] | 0.93 | – | –
117 | Nc1cccc2c1C(=O)c1ccccc1C2=O | 3.74 | – | –
118 | CCOP(=S)(Oc1ccc([N+](=O)[O-])cc1)c1ccccc1 (centres undefined) | 4.78 | – | –
119 | Clc1ccccn1 | – | 176000 µM (≈ 20000 µg/mL) | –
120 | O=CC(Cl)(Cl)Cl | – | 204000 µM (≈ 30000 µg/mL) | –
121 | CC(C)CN1CCOCC1 | 1.17 | 195000 µM (≈ 28000 µg/mL) | –
122 | CCNc1cccc2ccccc12 | 3.45 | 642 µM (≈ 110 µg/mL) | –
123 | Oc1cccc(Cl)c1Cl | – | 22100 µM (≈ 3600 µg/mL) | –
124 | COc1ccc(C(=O)c2ccccc2)c(O)c1 | 3.79 | – | –
125 | CCN(CC)c1ccc2c(-c3ccccc3C(=O)O)c3ccc(N(CC)CC)cc3[o+]c2c1.[Cl-] | 1.95 | – | –
126 | O=[N+]([O-])c1cc(Cl)cc(Cl)c1O | – | 81.7 µM (≈ 17 µg/mL) | –
127 | CCCCC(CC)COC(=O)/C=C/C(=O)OCC(CC)CCCC (centres undefined) | – | – | solubility: 294 µM (≈ 100 µg/mL)
128 | ClC1CCCCC1 | – | 4220 µM (≈ 500 µg/mL) | –
129 | CC(C)CNCC(C)C | – | 17000 µM (≈ 2200 µg/mL) | –
